From patent US10738043B2, “GLS1 inhibitors for treating disease” (Board of Regents, The University of Texas System, priority 2015, dated 2020)
Where two headings read alike, the source gives them in different places.

Assays:
[1] = target: T1, GLS1 (purified recombinant human GAC) (Homo sapiens, UniProt O94925); experiment: GLS1 Enzymatic Activity Assay (dual-coupled enzymatic assay); type: biochemical; details: 50 mM potassium phosphate, 1 mM glutamine, read-out: IC50 against GLS1
T1 sequence (O94925 55-598 isoform O94925-3 limits assumed): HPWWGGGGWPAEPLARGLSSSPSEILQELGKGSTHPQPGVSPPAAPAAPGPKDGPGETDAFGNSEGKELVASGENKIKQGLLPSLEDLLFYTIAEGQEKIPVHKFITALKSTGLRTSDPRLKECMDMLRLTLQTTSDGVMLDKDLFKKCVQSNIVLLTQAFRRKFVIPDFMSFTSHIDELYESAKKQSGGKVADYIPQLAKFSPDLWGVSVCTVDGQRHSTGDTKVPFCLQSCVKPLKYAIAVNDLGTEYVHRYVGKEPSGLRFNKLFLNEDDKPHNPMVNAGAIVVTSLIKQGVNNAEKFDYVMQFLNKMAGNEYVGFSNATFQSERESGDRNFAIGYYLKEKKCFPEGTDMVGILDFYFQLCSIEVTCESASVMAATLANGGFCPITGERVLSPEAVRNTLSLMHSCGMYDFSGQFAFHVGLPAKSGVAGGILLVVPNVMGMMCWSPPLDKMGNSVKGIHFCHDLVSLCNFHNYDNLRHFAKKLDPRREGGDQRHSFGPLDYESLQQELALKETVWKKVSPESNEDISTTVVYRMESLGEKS
Description: GLS1 Enzymatic Activity Assay
The inhibition of purified recombinant human GAC by varying concentrations of inhibitors is assessed via a dual-coupled enzymatic assay. The glutamate produced by the glutaminase reaction is used by glutamate oxidase to produce α-ketoglutarate, ammonia, and hydrogen peroxide, with this hydrogen peroxide subsequently being used by horseradish peroxidase to produce resorufin in the presence of Amplex UltraRed. The assay buffer consisted of 50 mM HEPES (pH 7.4), 0.25 mM EDTA and 0.1 mM Triton X-100. GAC was incubated with potassium phosphate (10 minutes at room temperature) prior to incubation with inhibitor (10 minutes at room temperature). The final reaction conditions were as follows: 2 nM GAC, 50 mM potassium phosphate, 100 mU/ml glutamate oxidase (Sigma), 1 mM glutamine (Sigma), 100 mU/ml horseradish peroxidase (Sigma), 75 μM Amplex UltraRed (Life Technologies), and 1% (v/v) DMSO. The production of resorufin was monitored on a Perkin Elmer Envision plate reader (excitation 530 nm, emission 590 nm) either in a kinetics or endpoint mode (at 20 minutes). IC50 values were calculated using a four-parameter logistic curve fit.

[2] = test system: A549 cells; experiment: Proliferation Assay (A549 viability, Cell Titer Fluor, 72 hours); type: cell-based; details: read-out: EC50 against A549 cell proliferation
Description: A549 cells were routinely maintained in RPMI 1640 media (Gibco catalog number 11875-093) supplemented with 10% dialyzed fetal bovine serum using a humidified incubator (37° C., 5% CO2 and ambient O2). In preparation for the viability assay, cells were inoculated into 384-well black CulturPlates (Perkin Elmer) at a density of 1000 cells/well in a volume of 40 μl. Following a 24-hour incubation at 37° C., 5% CO2 and ambient 02, cells were treated with compound (10 μl) in a final DMSO concentration of 0.5% (v/v). The microplates were then incubated for 72 hours (37° C., 5% CO2 and ambient O2). Cell Titer Fluor (Promega) was subsequently added (10 μl of 6× reagent) and mixed for 15 minutes at room temperature. The plates were then incubated for 30 minutes (37° C., 5% CO2 and ambient O2) and fluorescence was subsequently read on the Perkin Elmer Envision plate reader. EC50 values were calculated using a four-parameter logistic curve fit.

| IC50 [1] [nM] | EC50 ([2]; Homo sapiens) [nM] | Compound | EC50 [2] [nM] |
| --- | --- | --- | --- |
| 100 to 500 | 500 to 5000 | Nc1nnc(C2CCCN(c3nnc(NC(=O)Cc4cccc(OC(F)(F)F)c4)s3)C2)s1 (stereo not shown) [Example 16, N-(5-(3-(5-amino-1,3,4-thiadiazol-2-yl)piperidin-1-yl)-1,3,4-thiadiazol-2-yl)-2-(3-(trifluoromethoxy)phenyl)acetamide] | – |
| < 100 | < 100 | CNC(=O)c1nnc(N2CCC(c3ccc(NC(=O)Cc4cn(-c5cccc(OC(F)(F)F)c5)cn4)nn3)C2)s1 (stereo not shown) [Example 40, N-methyl-5-(3-(6-(2-(1-(3-(trifluoromethoxy)phenyl)-1H-imidazol-4-yl)acetamido)pyridazin-3-yl)pyrrolidin-1-yl)-1,3,4-thiadiazole-2-carboxamide] | – |
| < 100 | 100 to 500 | O=C(Cc1ccccn1)Nc1nnc(C2CCCN(c3nnc(NC(=O)Cc4cccc(OC(F)(F)F)c4)s3)C2)s1 (stereo not shown) [Example 26, 2-(pyridin-2-yl)-N-(5-(1-(5-(2-(3-(trifluoromethoxy)phenyl)acetamido)-1,3,4-thiadiazol-2-yl)piperidin-3-yl)-1,3,4-thiadiazol-2-yl)acetamide] | – |
| 100 to 500 | 500 to 5000 | Nc1nnc(C2CCN(c3ccc(NC(=O)Cc4cccc(OC(F)(F)F)c4)nn3)C2)s1 (stereo not shown) [Example 19, N-(6-(3-(5-amino-1,3,4-thiadiazol-2-yl)pyrrolidin-1-yl)pyridazin-3-yl)-2-(3-(trifluoromethoxy)phenyl)acetamide] | – |
| 100 to 500 | 500 to 5000 | CC(=O)Nc1nnc(C2CCCN(c3ccc(NC(=O)Cc4ccccc4)nn3)C2)s1 (stereo not shown) [Example 4, N-(6-(3-(5-Acetamido-1,3,4-thiadiazol-2-yl)piperidin-1-yl)pyridazin-3-yl)-2-phenylacetamide] | – |
| < 100 | < 100 | O=C(Cc1ccccn1)Nc1ccc([C@@H]2CCN(c3nnc(C(=O)NCc4cc(C5CC5)ccn4)s3)C2)nn1 [Example 47, (R)-N-((4-cyclopropylpyridin-2-yl)methyl)-5-(3-(6-(2-(pyridin-2-yl)acetamido)pyridazin-3-yl)pyrrolidin-1-yl)-1,3,4-thiadiazole-2-carboxamide] | – |
| < 100 | < 100 | Cc1cccc(CC(=O)Nc2ccc(C3CCN(c4nnc(C(=O)NCc5cc(C(F)(F)F)ccn5)s4)C3)nn2)n1 (stereo not shown) [Example 49, 5-(3-(6-(2-(6-methylpyridin-2-yl)acetamido)pyridazin-3-yl)pyrrolidin-1-yl)-N-((4-(trifluoromethyl)pyridin-2-yl)methyl)-1,3,4-thiadiazole-2-carboxamide] | – |
| < 100 | 100 to 500 | CC(=O)Nc1nnc(C2CCCN(c3ccc(NC(=O)Cc4cccc(OC(F)(F)F)c4)nn3)C2)s1 (stereo not shown) [Example 15, N-(6-(3-(5-acetamido-1,3,4-thiadiazol-2-yl)piperidin-1-yl)pyridazin-3-yl)-2-(3-(trifluoromethoxy)phenyl)acetamide] | – |
| 100 to 500 | 500 to 5000 | O=C(Cc1cccc(OC(F)(F)F)c1)Nc1ccc(N2CCC(n3cc(C(=O)NCc4ccccn4)nn3)C2)nn1 (stereo not shown) [Example 8, N-(pyridin-2-ylmethyl)-1-(1-(6-(2-(3-(trifluoromethoxy)phenyl)acetamido)pyridazin-3-yl)pyrrolidin-3-yl)-1H-1,2,3-triazole-4-carboxamide] | – |
| < 100 | 100 to 500 | Cn1cc(CC(=O)Nc2nnc(C3CCN(c4ccc(NC(=O)Cc5cccc(OC(F)(F)F)c5)nn4)C3)s2)cn1 (stereo not shown) [Example 18, 2-(1-methyl-1H-pyrazol-4-yl)-N-(5-(1-(6-(2-(3-(trifluoromethoxy)phenyl)acetamido)pyridazin-3-yl)pyrrolidin-3-yl)-1,3,4-thiadiazol-2-yl)acetamide 2,2,2-trifluoroacetate] | – |
| < 100 | 100 to 500 | CC(=O)Nc1nnc(N2CCC(c3ccc(NC(=O)Cc4cccc(OC(F)(F)F)c4)nn3)C2)s1 (stereo not shown) [Example 27, N-(6-(1-(5-acetamido-1,3,4-thiadiazol-2-yl)pyrrolidin-3-yl)pyridazin-3-yl)-2-(3-(trifluoromethoxy)phenyl)acetamide] | – |
| < 100 | < 100 | O=C(Cc1cccc(OC(F)(F)F)c1)Nc1ccc(N2CCC(c3nnc(NC(=O)CC4CCCCO4)s3)C2)nn1 (stereo not shown) [Example 34, 2-(tetrahydro-2H-pyran-2-yl)-N-(5-(1-(6-(2-(3-(trifluoromethoxy)phenyl)acetamido)pyridazin-3-yl)pyrrolidin-3-yl)-1,3,4-thiadiazol-2-yl)acetamide] | – |
| < 100 | < 100 | O=C(Cc1ccccn1)Nc1ccc([C@@H]2CCN(c3nnc(C(=O)NCc4cc(C(F)(F)F)ccn4)s3)C2)nn1 [Example 44, (R)-5-(3-(6-(2-(pyridin-2-yl)acetamido)pyridazin-3-yl)pyrrolidin-1-yl)-N-((4-(trifluoromethyl)pyridin-2-yl)methyl)-1,3,4-thiadiazole-2-carboxamide] | – |
| < 100 | < 100 | O=C(Cc1ccccn1)Nc1ccc([C@@H]2CCN(c3nnc(C(=O)NCc4ccccn4)s3)C2)nn1 [Example 46, (R)-5-(3-(6-(2-(pyridin-2-yl)acetamido)pyridazin-3-yl)pyrrolidin-1-yl)-N-(pyridin-2-ylmethyl)-1,3,4-thiadiazole-2-carboxamide] | – |
| 100 to 500 | 500 to 5000 | O=C(Cc1ccccn1)Nc1nnc(C2CCN(c3nnc(NC(=O)Cc4cccc(OC(F)(F)F)c4)s3)C2)s1 (stereo not shown) [Example 32, 2-(pyridin-2-yl)-N-(5-(1-(5-(2-(3-(trifluoromethoxy)phenyl)acetamido)-1,3,4-thiadiazol-2-yl)pyrrolidin-3-yl)-1,3,4-thiadiazol-2-yl)acetamide] | – |
| < 100 | 100 to 500 | O=C(Cc1cccc(OC(F)(F)F)c1)Nc1ccc(C2CCN(c3nnc(NC(=O)Cc4ccccn4)s3)C2)nn1 (stereo not shown) [Example 21, 2-(pyridin-2-yl)-N-(5-(3-(6-(2-(3-(trifluoromethoxy)phenyl)acetamido)pyridazin-3-yl)pyrrolidin-1-yl)-1,3,4-thiadiazol-2-yl)acetamide] | – |
| < 100 | 100 to 500 | O=C(Cc1cccc(OC(F)(F)F)c1)Nc1ccc(N2CCC(c3nnc(NC(=O)Cc4noc5ccccc45)s3)C2)nn1 (stereo not shown) [Example 36, 2-(benzo[d]isoxazol-3-yl)-N-(5-(1-(6-(2-(3-(trifluoromethoxy)phenyl)acetamido)pyridazin-3-yl)pyrrolidin-3-yl)-1,3,4-thiadiazol-2-yl)acetamide] | – |

| Compound | IC50 [1] [nM] | EC50 ([2]; Homo sapiens) [nM] | EC50 [2] [nM] |
| --- | --- | --- | --- |
| Cc1cc(OC2CC(F)(F)C2)cc(CC(=O)Nc2ccc(C3CCN(c4nnc(C(=O)NCc5cc(C(F)(F)F)ccn5)s4)C3)nn2)n1 (stereo not shown) [Example 52, 5-(3-(6-(2-(4-(3,3-difluorocyclobutoxy)-6-methylpyridin-2-yl)acetamido)pyridazin-3-yl)pyrrolidin-1-yl)-N-((4-(trifluoromethyl)pyridin-2-yl)methyl)-1,3,4-thiadiazole-2-carboxamide] | < 100 | < 100 | – |
| N-(pyridin-2-ylmethyl)-5-(1-(6-(2-(3-(trifluoromethoxy)phenyl)acetamido)pyridazin-3-yl)pyrrolidin-3-yl)-1,3,4-thiadiazole-2-carboxamide-2,2,2-trifluoroacetate [Example 10] | < 100 | – | 100 to 500 |
| Cc1cccc(CNC(=O)c2nnc(N3CCC(c4ccc(NC(=O)Cc5cc(OC6CC(F)(F)C6)cc(C)n5)nn4)C3)s2)n1 (stereo not shown) [Example 53, 5-(3-(6-(2-(4-(3,3-difluorocyclobutoxy)-6-methylpyridin-2-yl)acetamido)pyridazin-3-yl)pyrrolidin-1-yl)-N-((6-methylpyridin-2-yl)methyl)-1,3,4-thiadiazole-2-carboxamide] | < 100 | < 100 | – |
